In PubChem BioAssay (NCI):
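Dose response: 5 concentrations. Exposure: 48 h. Format: 96-well plates. Endpoint: linear interpolation; highest concentration if not reached. At the TGI there is no net growth.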

Assays:
Assay in all cases: inhibition of tumour cell growth, NCI panel, 48 h
HCC-2998 colon = test system: HCC-2998 colon
HL-60(TB) leukemia = test system: HL-60(TB) leukemia
HT29 colon = test system: HT29 colon
K-562 leukemia = test system: K-562 leukemia
KM12 colon = test system: KM12 colon
MOLT-4 leukemia = test system: MOLT-4 leukemia
NCI-H23 lung = test system: NCI-H23 lung
SK-MEL-5 melanoma = test system: SK-MEL-5 melanoma
SN12C renal = test system: SN12C renal
SNB-75 CNS = test system: SNB-75 CNS
UO-31 renal = test system: UO-31 renal
HOP-62 NSCLC = test system: HOP-62 NSCLC
OVCAR-5 ovarian = test system: OVCAR-5 ovarian

| Structure (SMILES) | TGI (HCC-2998 colon) [µM] | TGI (HL-60(TB) leukemia) [µM] | TGI (HT29 colon) [µM] | TGI (K-562 leukemia) [µM] | TGI (KM12 colon) [µM] | TGI (MOLT-4 leukemia) [µM] | TGI (NCI-H23 lung) [µM] | TGI (SK-MEL-5 melanoma) [µM] | TGI (SN12C renal) [µM] | TGI (SNB-75 CNS) [µM] | TGI (UO-31 renal) [µM] | TGI (HOP-62 NSCLC) [µM] | TGI (OVCAR-5 ovarian) [µM] |
| --- | --- | --- | --- | --- | --- | --- | --- | --- | --- | --- | --- | --- | --- |
| Cc1ccc2c(c1CCCC(C)(C)O)C(=O)C(=O)C(C(C)C)=C2O | > 100 | > 100 | > 100 | > 100 | > 100 | > 100 | > 100 | > 100 | > 100 | > 100 | > 100 | – | – |
| Cc1cn(C2CC(N(O)Cc3ccccc3)C(CO)O2)c(=O)[nH]c1=O (stereo not given) | > 100 | > 100 | > 100 | > 100 | > 100 | > 100 | > 100 | > 100 | > 100 | > 100 | > 100 | > 100 | > 100 |
| O=c1[nH]cc(COCC(F)(F)C(F)(F)C(F)(F)C(F)F)c(=O)[nH]1 | > 100 | > 100 | > 100 | > 100 | > 100 | > 100 | > 100 | > 100 | > 100 | > 100 | > 100 | > 100 | > 100 |
| COc1cc2c(cc1OCc1ccccc1)CNCC2 | > 100 | > 100 | > 100 | > 100 | > 100 | > 100 | > 100 | > 100 | > 100 | > 100 | > 100 | > 100 | > 100 |
| CCCCCC(C[N+]1(C)CCOCC1)C(=O)/C=C/c1ccccc1 (stereo not given) | 33.7 | 37.5 | 10.3 | 18 | 8.71 | 27.4 | 32 | 28.1 | 28.6 | 15.7 | 29.7 | 69.2 | 37.3 |
| O=[N+]([O-])c1ccc(-n2nnc(C3=NCCCN3)c2-c2ccc(Cl)cc2)cc1 | > 100 | > 100 | > 100 | > 100 | > 100 | > 100 | > 100 | > 100 | > 100 | > 100 | > 100 | > 100 | > 100 |
| CCOC(=O)C(N=Nc1ccc(S(N)(=O)=O)cc1)C(C)=O (stereo not given) | > 100 | > 100 | > 100 | > 100 | > 100 | > 100 | > 100 | > 100 | > 100 | > 100 | > 100 | > 100 | > 100 |
| CCN1CCN(c2ccc(Nc3ccnc4ccc5nn(C)nc5c34)cc2)CC1 | 26 | > 100 | 16.6 | > 100 | 24 | > 100 | 29.4 | 28.5 | 42.3 | 26.4 | 26.7 | 26.4 | 32.5 |
| O=C(C[n+]1ccccc1)NNC(=O)/C(=C/c1ccc2c(c1)OCO2)NC(=O)c1ccccc1 | > 100 | 64.8 | > 100 | > 100 | > 100 | 82.7 | > 100 | 98.4 | > 100 | > 95.9 | > 100 | > 100 | > 100 |
| C/C(=C1/CCCC2(N=NCC2c2ccccc2)C1=O)c1ccccc1 (stereo not given) | > 100 | 25.6 | 56.7 | 41.4 | 31.3 | 48.1 | 67.5 | 25.3 | > 100 | 99.7 | > 100 | – | > 100 |
| O=C1C(Cl)C(c2ccccc2)N1n1cnc2ccccc2c1=O (stereo not given) | > 100 | > 100 | > 100 | > 100 | > 100 | > 100 | > 100 | > 100 | > 100 | 82.4 | > 100 | > 100 | > 100 |
| Clc1ccc(-c2c(C3=NCCN3)nnn2-c2ccc(Cl)cc2)cc1 | 33.6 | 39.1 | 36.2 | 35.9 | 56.3 | 29 | > 100 | 30.5 | > 100 | 48.3 | 64.5 | > 100 | > 100 |
| COc1cc2c(cc1OC)C(O)[C@H](Br)C(C)(C)O2 (stereo not given in full) | > 100 | > 100 | > 100 | > 100 | > 100 | > 100 | > 100 | > 100 | > 100 | > 100 | > 100 | > 100 | > 100 |
| CC(C)(C)C(=O)/C=C/c1ccc(Oc2ccccc2)cc1 | > 100 | – | 25 | 36 | 33.9 | 42.4 | – | 32.5 | 46 | 74.5 | 54.3 | 86.4 | 33.8 |
| COC(=O)C(=C/c1ccc(OC)cc1)/C(C(=O)O)=C(/C)c1ccccc1 | > 100 | > 100 | > 100 | > 100 | > 100 | > 100 | > 100 | > 100 | > 100 | > 100 | > 100 | > 100 | > 100 |
